# From patent US20030095958A1, “Inhibitors of bace” (priority 2001, published 2003)
# Molecular target: BACE (Homo sapiens, UniProt P56817)
# Assay: Ki Determination for the Inhibition of BACE (FS-1 peptide fluorescence cleavage assay)
# Format: biochemical
# Settings: apparent Ki; 50 nM BACE, 10 μM FS-1 substrate, 0.1M sodium acetate pH 4.5
# How it was run: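 Apparent Ki values derive from fitting fluorescence progress data (355 nm excitation, 495 nm emission) of FS-1 peptide cleavage to an integrated competitive tight-binding model. Reactions held 50 nM BACE, 10 μM substrate and inhibitor in 2% DMSO, pH 4.5 acetate buffer, with a 15 min enzyme-compound preincubation at room temperature.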
# Chain of BACE (P56817 46-501): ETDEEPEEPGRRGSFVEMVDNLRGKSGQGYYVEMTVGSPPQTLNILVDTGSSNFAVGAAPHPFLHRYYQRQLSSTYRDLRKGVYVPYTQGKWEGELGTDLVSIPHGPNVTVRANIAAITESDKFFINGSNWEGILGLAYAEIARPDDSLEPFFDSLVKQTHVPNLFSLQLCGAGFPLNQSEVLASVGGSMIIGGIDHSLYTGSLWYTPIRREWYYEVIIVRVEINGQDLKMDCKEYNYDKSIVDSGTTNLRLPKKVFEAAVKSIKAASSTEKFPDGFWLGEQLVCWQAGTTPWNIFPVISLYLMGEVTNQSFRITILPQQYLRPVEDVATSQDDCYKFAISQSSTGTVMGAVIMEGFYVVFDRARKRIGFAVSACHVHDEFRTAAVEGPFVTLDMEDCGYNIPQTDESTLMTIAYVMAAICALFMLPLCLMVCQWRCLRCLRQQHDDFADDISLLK
row,Ki,SMILES
1,3 to 30 µM,"O=C(OCc1ccc(COc2ccccc2C(F)(F)F)cc1C1=CCNCC1)c1ccccc1C(F)(F)F [Compound 314, 2-Trifluoromethyl-benzoic acid 2-(1,2,3,6-tetrahydro-pyridin-4-yl)-4-(2-trifluoromethyl-phenoxymethyl)-benzyl ester]"
2,3 to 30 µM,"O=C(COCc1ccccc1)OCc1ccc(COc2ccccc2C(F)(F)F)cc1C1=CCNCC1 [Compound 315, Benzyloxy-acetic acid 2-(1,2,3,6-tetrahydro-pyridin-4-yl)-4-(2-trifluoromethyl-phenoxymethyl)-benzyl ester]"
3,3 to 30 µM,"O=C(OCc1ccc(COc2ccccc2C(F)(F)F)cc1C1=CCNCC1)c1ccc2c(c1)OCO2 [Compound 316, Benzo[1,3]dioxole-5-carboxylic acid 2-(1,2,3,6-tetrahydro-pyridin-4-yl)-4-(2-trifluoromethyl-phenoxymethyl)-benzyl ester]"
4,3 to 30 µM,"COC(=O)c1ccc(C(=O)OCc2ccc(COc3ccccc3C(F)(F)F)cc2C2=CCNCC2)cc1 [Compound 317, Terephthalic acid 1-methyl ester 4-[2-(1,2,3,6-tetrahydro-pyridin-4-yl)-4-(2-trifluoromethyl-phenoxymethyl)-benzyl] ester]"
5,< 3 µM,"O=C(OCc1ccc(COc2ccccc2C(F)(F)F)cc1C1=CCNCC1)Oc1cccc2ccccc12 [Compound 318, Carbonic acid naphthalen-1-yl ester 2-(1,2,3,6-tetrahydro-pyridin-4-yl)-4-(2-trifluoromethyl-phenoxymethyl)-benzyl ester]"
6,< 3 µM,"O=C(OCc1ccc(COc2ccccc2C(F)(F)F)cc1C1=CCNCC1)Oc1ccc2ccccc2c1 [Compound 319, Carbonic acid naphthalen-2-yl ester 2-(1,2,3,6-tetrahydro-pyridin-4-yl)-4-(2-trifluoromethyl-phenoxymethyl)-benzyl ester]"
7,3 to 30 µM,"FC(F)(F)c1ccccc1OCc1ccc(COc2cccc3ccccc23)c(C2=CCNCC2)c1 [Compound 320, 4-[2-(Naphthalen-1-yloxymethyl)-5-(2-trifluoromethyl-phenoxymethyl)-phenyl]-1,2,3,6-tetrahydro-pyridine]"
8,< 3 µM,"FC(F)(F)c1ccccc1OCc1ccc(COc2ccc3ccccc3c2)c(C2=CCNCC2)c1 [Compound 321, 4-[2-(Naphthalen-2-yloxymethyl)-5-(2-trifluoromethyl-phenoxymethyl)-phenyl]-1,2,3,6-tetrahydro-pyridine]"
9,3 to 30 µM,"O=C(Nc1cccc2ccccc12)c1ccc(COc2ccccc2C(F)(F)F)cc1C1=CCNCC1 [Compound 322, N-Naphthalen-1-yl-2-(1,2,3,6-tetrahydro-pyridin-4-yl)-4-(2-trifluoromethyl-phenoxymethyl)-benzamide]"
10,< 3 µM,"FC(F)(F)c1ccc(OCc2ccc(COc3ccccc3C(F)(F)F)cc2C2=CCNCC2)cc1 [Compound 323, 4-[5-(2-Trifluoromethyl-phenoxymethyl)-2-(4-trifluoromethyl-phenoxymethyl)-phenyl]-1,2,3,6-tetrahydro-pyridine]"
11,< 3 µM,"FC(F)(F)c1cccc(OCc2ccc(COc3ccccc3C(F)(F)F)cc2C2=CCNCC2)c1 [Compound 324, 4-[5-(2-Trifluoromethyl-phenoxymethyl)-2-(3-trifluoromethyl-phenoxymethyl)-phenyl]-1,2,3,6-tetrahydro-pyridine]"
12,< 3 µM,"FC(F)(F)c1ccccc1OCc1ccc(COc2ccc(-c3ccccc3)cc2)c(C2=CCNCC2)c1 [Compound 325, 4-[2-(Biphenyl-4-yloxymethyl)-5-(2-trifluoromethyl-phenoxymethyl)-phenyl]-1,2,3,6-tetrahydro-pyridine]"
13,3 to 30 µM,"FC(F)(F)c1ccccc1OCc1ccc(COc2ccc(-c3ccccc3)cc2-c2ccccc2)c(C2=CCNCC2)c1 [Compound 326, 4-[2-([1,1′;3′,1′′]Terphenyl-4′-yloxymethyl)-5-(2-trifluoromethyl-phenoxymethyl)-phenyl]-1,2,3,6-tetrahydro-pyridine]"
14,< 3 µM,"FC(F)(F)c1ccccc1OCc1ccc(COc2cccc3ncccc23)c(C2=CCNCC2)c1 [Compound 327, 5-[2-(1,2,3,6-Tetrahydro-pyridin-4-yl)-4-(2-trifluoromethyl-phenoxymethyl)-benzyloxy]-quinoline]"
15,3 to 30 µM,"COC(=O)c1cccc(OCc2ccc(COc3ccccc3C(F)(F)F)cc2C2=CCNCC2)c1 [Compound 328, 3-[2-(1,2,3,6-Tetrahydro-pyridin-4-yl)-4-(2-trifluoromethyl-phenoxymethyl)-benzyloxy]-benzole acid methyl ester]"
16,3 to 30 µM,"COC(=O)c1ccc(OCc2ccc(COc3ccccc3C(F)(F)F)cc2C2=CCNCC2)cc1 [Compound 329, 4-[2-(1,2,3,6-Tetrahydro-pyridin-4-yl)-4-(2-trifluoromethyl-phenoxymethyl)-benzyloxy]-benzoic acid methyl ester]"

row,Ki,SMILES
1,< 3 µM,"COC(=O)c1cc(OCc2ccc(COc3ccccc3C(F)(F)F)cc2C2=CCNCC2)cc(C(=O)OC)c1 [Compound 330, 5-[2-(1,2,3,6-Tetrahydro-pyridin-4-yl)-4-(2-trifluoromethyl-phenoxymethyl)-benzyloxy]-isophthalic acid dimethyl ester]"
2,< 3 µM,"O=C1CCCc2c(OCc3ccc(COc4ccccc4C(F)(F)F)cc3C3=CCNCC3)cccc21 [Compound 331, 5-[2-(1,2,3,6-Tetrahydro-pyridin-4-yl)-4-(2-trifluoromethyl-phenoxymethyl)-benzyloxy]-3,4-dihydro-2H-naphthalen-1-one]"
3,< 3 µM,"CCOC(=O)c1c(C)[nH]c2ccc(OCc3ccc(COc4ccccc4C(F)(F)F)cc3C3=CCNCC3)cc12 [Compound 332, 2-Methyl-5-[2-(1,2,3,6-tetrahydro-pyridin-4-yl)-4-(2-trifluoromethyl-phenoxymethyl)-benzyloxy]-1H-indole-3-carboxylic acid ethyl ester]"
4,< 3 µM,"FC(F)(F)c1ccccc1OCc1cc(C2=CCNCC2)c(COc2ccccc2C(F)(F)F)cc1Br [Compound 333, 4-[4-Bromo-2,5-bis-(2-trifluoromethyl-phenoxymethyl)-phenyl]-1,2,3,6-tetrahydro-pyridine]"
5,3 to 30 µM,"FC(F)(F)c1ccccc1OCc1cc(C2=CCNCC2)c(COc2ccccc2C(F)(F)F)cc1C1=CCNCC1 [Compound 334, 4-[4-(1,2,3,6-Tetrahydro-pyridin-4-yl)-2,5-bis-(2-trifluoromethyl-phenoxymethyl)-phenyl]-1,2,3,6-tetrahydro-pyridine]"
6,3 to 30 µM,"FC(F)(F)c1ccccc1OCc1cc(-c2ccc(Cl)c(Cl)c2)c(COc2ccccc2C(F)(F)F)cc1C1=CCNCC1 [Compound 335, 4-[3′,4′-Dichloro-2,5-bis-(2-trifluoromethyl-phenoxymethyl)-biphenyl-4-yl]-1,2,3,6-tetrahydro-pyridine]"
7,< 3 µM,"FC(F)(F)c1ccccc1OCc1cc(-c2ccccc2C(F)(F)F)c(COc2ccccc2C(F)(F)F)cc1C1=CCNCC1 [Compound 336, 4-[2′-Trifluoromethyl-2,5-bis-(2-trifluoromethyl-phenoxymethyl)-biphenyl-4-yl]-1,2,3,6-tetrahydro-pyridine]"
8,3 to 30 µM,"FC(F)(F)c1cccc(-c2cc(COc3ccccc3C(F)(F)F)c(C3=CCNCC3)cc2COc2ccccc2C(F)(F)F)c1 [Compound 337, 4-[3′-Trifluoromethyl-2,5-bis-(2-trifluoromethyl-phenoxymethyl)-biphenyl-4-yl]-1,2,3,6-tetrahydro-pyridine]"
9,3 to 30 µM,"FC(F)(F)c1ccc(-c2cc(COc3ccccc3C(F)(F)F)c(C3=CCNCC3)cc2COc2ccccc2C(F)(F)F)cc1 [Compound 338, 4-[4′-Trifluoromethyl-2,5-bis-(2-trifluoromethyl-phenoxymethyl)-biphenyl-4-yl]-1,2,3,6-tetrahydro-pyridine]"
10,3 to 30 µM,"FC(F)(F)c1ccccc1OCc1cc(-c2ccc3ccccc3c2)c(COc2ccccc2C(F)(F)F)cc1C1=CCNCC1 [Compound 339, 4-[4-Naphthalen-2-yl-2,5-bis-(2-trifluoromethyl-phenoxymethyl)-phenyl]-1,2,3,6-tetrahydro-pyridine]"
11,< 3 µM,"FC(F)(F)c1ccccc1OCc1cc(-c2cccnc2)c(COc2ccccc2C(F)(F)F)cc1C1=CCNCC1 [Compound 340, 3-[4-(1,2,3,6-Tetrahydro-pyridin-4-yl)-2,5-bis-(2-trifluoromethyl-phenoxymethyl)-phenyl]-pyridine]"
12,< 3 µM,"FC(F)(F)c1ccccc1OCc1cc(-c2ccncc2)c(COc2ccccc2C(F)(F)F)cc1C1=CCNCC1 [Compound 341, 4-[4-(1,2,3,6-Tetrahydro-pyridin-4-yl)-2,5-bis-(2-trifluoromethyl-phenoxymethyl)-phenyl]-pyridine]"
13,< 3 µM,"FC(F)(F)c1ccccc1OCc1cc(-c2ccsc2)c(COc2ccccc2C(F)(F)F)cc1C1=CCNCC1 [Compound 342, 4-[4-Thiophen-3-yl-2,5-bis-(2-trifluoromethyl-phenoxymethyl)-phenyl]-1,2,3,6-tetrahydro-pyridine]"
14,< 3 µM,"FC(F)(F)c1ccccc1OCc1cc(-c2ccoc2)c(COc2ccccc2C(F)(F)F)cc1C1=CCNCC1 [Compound 343, 4-[4-Furan-3-yl-2,5-bis-(2-trifluoromethyl-phenoxymethyl)-phenyl]-1,2,3,6-tetrahydro-pyridine]"
15,< 3 µM,"O=[N+]([O-])c1ccccc1-c1cc(COc2ccccc2C(F)(F)F)c(C2=CCNCC2)cc1COc1ccccc1C(F)(F)F [Compound 344, 4-[2′-Nitro-2,5-bis-(2-trifluoromethyl-phenoxymethyl)-biphenyl-4-yl]-1,2,3,6-tetrahydro-pyridine]"
16,< 3 µM,"FC(F)(F)c1ccccc1OCc1cc(-c2cccs2)c(COc2ccccc2C(F)(F)F)cc1C1=CCNCC1 [Compound 345, 4-[4-Thiophen-2-yl-2,5-bis-(2-trifluoromethyl-phenoxymethyl)-phenyl]-1,2,3,6-tetrahydro-pyridine]"
